This assay has as its target T1, Human IP6K1 (Homo sapiens, UniProt Q92551).
T1 construct: GST (N, cleaved yes); made in house; host or cells: C43 E. coli, pGEX-6P-2
Kind of assay: IP6K1 high-throughput screen of the Sigma LOPAC (ADP-Glo Max, single point).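 Also: final compound concentration 10µM in 5% DMSO.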 The format is biochemical. Background: ADP-Glo turns the ADP formed in a reaction into a luminescent signal.

Where [1] appears, read: LOPAC single-point screen, ADP-Glo Max raw signal per well.
Where [2] appears, read: LOPAC single-point screen, Z-score from raw signal with plate average and StDev.
Setting [3] is: LOPAC single-point screen, ADP-Glo Max luminescence raw signal per well.
The mark [4] stands for this setting: LOPAC single-point screen, Z-score relative to plate average and StDev.
[5] abbreviates: LOPAC single-point screen, Z-score against plate average and StDev.
The mark [6] stands for this setting: LOPAC single-point screen, Z-score from plate average and StDev.
The mark [7] stands for this setting: Sigma LOPAC single-point screen, ADP-Glo Max raw signal per well.
[8] abbreviates: Sigma LOPAC single-point screen, Z-score from plate average and StDev.

Molecules are shown by their SMILES. Where a name gives a salt, the structure may show the parent alone.

T1 sequence (Q92551 whole entry): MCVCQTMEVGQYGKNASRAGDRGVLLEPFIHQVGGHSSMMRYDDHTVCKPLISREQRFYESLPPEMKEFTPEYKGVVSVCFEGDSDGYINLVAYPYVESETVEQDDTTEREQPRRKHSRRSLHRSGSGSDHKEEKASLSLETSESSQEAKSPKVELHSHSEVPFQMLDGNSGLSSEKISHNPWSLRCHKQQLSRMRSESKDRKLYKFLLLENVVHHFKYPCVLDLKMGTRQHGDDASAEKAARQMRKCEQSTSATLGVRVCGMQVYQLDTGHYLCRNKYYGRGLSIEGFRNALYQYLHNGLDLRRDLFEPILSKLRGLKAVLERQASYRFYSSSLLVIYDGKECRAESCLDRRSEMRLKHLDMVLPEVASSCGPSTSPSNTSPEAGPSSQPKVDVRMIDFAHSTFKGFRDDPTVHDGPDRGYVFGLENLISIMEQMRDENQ

Turning to `Cc1cn([C@H]2C=C[C@@H](CO)O2)c(=O)[nH]c1=O` [2 ,3 -didehydro-3 -deoxythymidine], under setting [1], the “Raw Signal” value was found to be 54462. For the same compound, under setting [2], the Z-score is given as -0.1432.
As for `Nc1ccn([C@H]2CC[C@@H](CO)O2)c(=O)n1` [2 ,3 -dideoxycytidine], the “Raw Signal” value under setting [3] is recorded as 50390. The compound further gave a Z-score under setting [4] of -0.9702.
In the case of `c1ccc(-c2ccccn2)nc1` [2,2 -Bipyridyl], the “Raw Signal” value under setting [1] worked out at 56711. The Z-score under setting [5] amounted to 0.3136.
`CC(=O)C(C)=NO` [2,3-Butanedione monoxime]: under setting [3], the “Raw Signal” value is reported as 66346. Moreover, the Z-score under setting [6] is listed as 1.485.
As for `CC(=O)C(C)=O` [2,3-Butanedione], the “Raw Signal” value under setting [1] came out at 53441. This compound came in with a Z-score under setting [2] of -0.3505.
Take `COC1=C(OC)C(=O)c2ccccc2C1=O` [2,3-Dimethoxy-1,4-naphthoquinone]: the “Raw Signal” value under setting [7] is listed as 57485. Moreover, the Z-score under setting [8] is given as 0.4708.
For `Nc1cc(=O)[nH]c(N)n1` [2,6-Diamino-4-pyrimidinone], in that order: 57244 and 0.4218.
On the same counts, the results for `O=C[C@H](Cl)[C@@H](O)[C@H](O)[C@H](O)CO` [2-Chloro-2-deoxy-D-glucose] are 57775 and 0.5297.
For the compound `Nc1nc(Cl)nc2c1ncn2C1OC(CO)C(O)C1O` (stereo not drawn) [2-Chloroadenosine], the “Raw Signal” value under setting [1] worked out at 58125. This compound also showed a Z-score under setting [5] of 0.03732.
Consider `NCC(O)(CS(=O)(=O)O)c1ccc(Cl)cc1` (stereo not drawn) [2-Hydroxysaclofen], for which the “Raw Signal” value under setting [7] was determined as 61124. In addition, the Z-score under setting [8] turned out to be 0.5655.
Regarding `COc1ccc2[nH]c(I)c(CCNC(C)=O)c2c1` [2-Iodomelatonin], the “Raw Signal” value under setting [1] worked out at 55940. Besides, under setting [5], the Z-score amounted to 0.157.
On the same counts, the results for `Cc1[nH]c2ccc(O)cc2c1CCN.O=C(O)/C=C\C(=O)O` [2-Methyl-5-hydroxytryptamine maleate] are 56336 and 0.3264.
Consider `Nc1nc(Nc2ccccc2)nc2c1ncn2[C@@H]1O[C@H](CO)[C@@H](O)[C@H]1O` [2-Phenylaminoadenosine], for which, under setting [1], the “Raw Signal” value is on record as 55292. Under setting [2], this compound yielded a Z-score of -0.1422.
In the case of `COc1cc2c(cc1O)CC[C@@H]1[C@@H]2CC[C@]2(C)[C@@H](O)CC[C@@H]12` [2-methoxyestradiol], the “Raw Signal” value under setting [7] amounted to 58620. This compound returned a Z-score under setting [8] of 0.7102.
Take `N/C(=N\C(=O)c1nc(Cl)c(N)nc1N)NCc1ccc(Cl)c(Cl)c1` [3 ,4 -Dichlorobenzamil]: the “Raw Signal” value under setting [1] is listed as 56444. This compound also registered a Z-score under setting [5] of 0.2593.
Turning to `Cc1cn([C@H]2C[C@H](N=[N+]=[N-])[C@@H](CO)O2)c(=O)[nH]c1=O` [3 -Azido-3 -deoxythymidine], the “Raw Signal” value under setting [7] is listed as 61635. Besides, the Z-score under setting [8] was 0.6555.
Consider `O=c1oc(Cl)c(Cl)c2ccccc12` [3,4-Dichloroisocoumarin], for which the “Raw Signal” value under setting [3] was 52609. Further, the Z-score under setting [4] is listed as -0.5195.
Consider `O=C(O)Cc1ccc(O)c(O)c1` [3,4-Dihydroxyphenylacetic acid], for which the “Raw Signal” value under setting [7] is given as 57060. Moreover, the Z-score under setting [8] was determined as 0.3844.
Turning to `O=[N+]([O-])c1cc(O)c(O)c([N+](=O)[O-])c1` [3,5-Dinitrocatechol], the “Raw Signal” value under setting [1] worked out at 56696. Under setting [5], this compound returned a Z-score of 0.3105.
Consider `C#CCn1c(=O)c2c(ncn2C)n(C)c1=O` [3,7-Dimethyl-I-propargylxanthine], for which the “Raw Signal” value under setting [3] was found to be 50513. The compound also displayed a Z-score under setting [4] of -0.9452.
For `NCCCS(=O)(=O)O.[Na]` [3-Amino-1-propanesulfonic acid sodium], in that order: 52858 and -0.8903.
On the same counts, the results for `N#CCCN.N#CCCN.O=C(O)/C=C/C(=O)O` [3-Aminopropionitrile fumarate] are 53618 and -0.7565.
Regarding `NCCCP(=O)(O)O` [3-Aminopropylphosphonic acid], under setting [1], the “Raw Signal” value turned out to be 56234. Moreover, the Z-score under setting [2] is recorded as -0.2957.
As for `O=[N+]([O-])c1cccc2c(Br)n[nH]c12` [3-Bromo-7-nitroindazole], the “Raw Signal” value under setting [3] is listed as 68484. This compound yielded a Z-score under setting [6] of 1.862.
With `NNCc1cccc(O)c1` [3-Hydroxybenzylhydrazine dihydrochloride], under setting [1], the “Raw Signal” value was found to be 53590. In addition, the Z-score under setting [2] is recorded as -0.3203.
Consider `N[C@@H](Cc1ccc(O)c(I)c1)C(=O)O` [3-Iodo-L-tyrosine], for which the “Raw Signal” value under setting [3] came to 50230. Further, the Z-score under setting [4] is recorded as -0.6996.
On to `CC(C)Cn1c(=O)n(C)c(=O)c2[nH]cnc21` [3-Isobutyl-1-methylxanthine], for which the “Raw Signal” value under setting [7] worked out at 62159. Under setting [8], this compound registered a Z-score of 1.305.
Take `COc1ccc2c(c1)[C@@]13CCCC[C@H]1[C@@H](C2)NCC3.Cl` [3-Methoxy-morphanin hydrochloride]: the “Raw Signal” value under setting [1] turned out to be 54071. Further, the Z-score under setting [5] is reported as -0.05419.
With `Nc1c[n+](N2CCOCC2)no1.[Cl-]` [3-Morpholinosydnonimine hydrochloride], under setting [1], the “Raw Signal” value was found to be 53200. The same compound registered a Z-score under setting [2] of -0.2005.
On to `O=C(O)CC[N+](=O)[O-]` [3-Nitropropionic acid], for which the “Raw Signal” value under setting [1] is 53138. In addition, the Z-score under setting [2] was -0.211.
Turning to `Cl.NCC#Cc1ccccc1` [3-Phenylpropargylamine hydrochloride], the “Raw Signal” value under setting [3] stood at 53264. Under setting [4], this compound gave a Z-score of -0.5362.
For the compound `CN1[C@@H]2CC[C@H]1C[C@@H](OC(=O)c1cc(Cl)cc(Cl)c1)C2` [3-Tropanyl-3,5-dichlorobenzoate], the “Raw Signal” value under setting [1] was 53877. The Z-score under setting [2] is listed as -0.4171.
As to `NC(=O)c1cccc(N)c1` [3-aminobenzamide], the “Raw Signal” value under setting [1] was determined as 56496. The compound further came in with a Z-score under setting [2] of -0.2496.
Regarding `Nc1nccc2c1ncn2[C@@H]1O[C@H](CO)[C@@H](O)[C@H]1O` [3-deazaadenosine], under setting [3], the “Raw Signal” value is listed as 51727. This compound also registered a Z-score under setting [4] of -0.6986.
Turning to `CCCn1c(=O)[nH]c(=O)c2nc[nH]c21` [3-n-Propylxanthine], under setting [7], the “Raw Signal” value worked out at 57454. This compound also returned a Z-score under setting [8] of 0.5142.
On to `Nc1ccc2c3c(cccc13)C(=O)NC2=O` [4-Amino-1,8-naphthalimide], for which the “Raw Signal” value under setting [3] came to 55002. The compound further displayed a Z-score under setting [4] of -0.5127.
For `N=C(N)c1ccc(N)cc1` [4-Aminobenzamidine dihydrochloride], in that order: 52991 and -0.8669.
For `Nc1ccncc1` [4-Aminopyridine], the “Raw Signal” value under setting [1] is recorded as 56638. Under setting [2], this compound registered a Z-score of -0.2246.
In the case of `C[C@]12CCC(=O)C(O)=C1CC[C@@H]1[C@@H]2CC[C@]2(C)C(=O)CC[C@@H]12` [4-Androsten-4-ol-3,17-dione], the “Raw Signal” value under setting [3] was found to be 53811. This compound had a Z-score under setting [4] of -0.7225.
Turning to `C[C@]12CCC(=O)C=C1CC[C@@H]1[C@@H]2CC[C@]2(C)C(=O)CC[C@@H]12` [4-Androstene-3,17-dione], under setting [1], the “Raw Signal” value worked out at 58885. The compound further had a Z-score under setting [5] of 0.1712.
In the case of `O=C(O)c1cc[c]([Hg][Cl])cc1` [4-Chloromercuribenzoic acid], the “Raw Signal” value under setting [1] was 56908. Also, the Z-score under setting [2] is recorded as -0.177.
As for `C[N+]1(C)CCC(OC(=O)C(c2ccccc2)c2ccccc2)CC1.[I-]` [4-DAMP methiodide], the “Raw Signal” value under setting [3] was 63096. Moreover, the Z-score under setting [6] was determined as 1.6103.
On to `COc1cc(CC(=O)O)ccc1O` [4-Hydroxy-3-methoxyphenylacetic acid], for which, under setting [7], the “Raw Signal” value stood at 58602. For the same compound, under setting [8], the Z-score turned out to be 0.6976.
On the same counts, the results for `NNC(=O)c1ccc(O)cc1` [4-Hydroxybenzhydrazide] are 59100 and 0.7987.
In the case of `Cl.NCCc1ccc(O)cc1` [4-Hydroxyphenethylamine hydrochloride], the “Raw Signal” value under setting [1] amounted to 54724. The Z-score under setting [2] is on record as -0.2525.
For `O=C(O)C=Cc1c[nH]cn1` [4-Imidazoleacrylic acid], the “Raw Signal” value under setting [1] is 54766. In addition, under setting [2], the Z-score is given as -0.2444.
As to `Cl.OCc1c[nH]cn1` [4-Imidazolemethanol hydrochloride], the “Raw Signal” value under setting [1] turned out to be 56297. Under setting [5], this compound registered a Z-score of 0.2295.
`Cc1cn[nH]c1.Cl` [4-Methylpyrazole hydrochloride]: under setting [3], the “Raw Signal” value was found to be 63526. Under setting [6], this compound yielded a Z-score of 1.5345.
For the compound `N#Cc1c(-c2ccccc2)no[n+]1[O-]` [4-Phenyl-3-furoxancarbonitrile], the “Raw Signal” value under setting [1] is 53966. Under setting [5], this compound yielded a Z-score of -0.07183.
For `Nc1ncnc2c1ncn2[C@@H]1O[C@H](C(=O)NC2CC2)[C@@H](O)[C@H]1O` [5 -(N-Cyclopropyl)carboxamidoadenosine], in that order: 57761 and -0.02679.
Regarding `CCNC(=O)[C@H]1O[C@@H](n2cnc3c(N)ncnc32)[C@H](O)[C@@H]1O` [5 -N-Ethylcarboxamidoadenosine], the “Raw Signal” value under setting [1] is 52988. Also, the Z-score under setting [2] is reported as -0.4425.
`CNC(=O)[C@H]1O[C@@H](n2cnc3c(N)ncnc32)[C@H](O)[C@@H]1O` [5 -N-Methyl carboxamidoadenosine]: under setting [3], the “Raw Signal” value stood at 66682. Also, the Z-score under setting [6] came to 1.544.
On to `CC1(C)CCC=[N+]1[O-]` [5,5-Dimethyl-1-pyrroline-N-oxide], for which the “Raw Signal” value under setting [3] is listed as 51954. Further, under setting [4], the Z-score was -0.6525.
In the case of `O=C1NC(=O)C(c2ccccc2)(c2ccccc2)N1` [5,5-Diphenylhydantoin], under setting [1], the “Raw Signal” value was 54091. The compound further displayed a Z-score under setting [2] of -0.2185.

The record behind these values is publication PMC5706701, “Development of a homogenous high-throughput assay for inositol hexakisphosphate kinase 1 activity” (PLoS ONE, 2017).
